This is an account of results in patent publication US20040229873A1, “Treatment of neurodegenerative conditions” (BTG International Limited, priority 2003, published 2004).

Data set [1] deals with patients suffering from MS. Put plainly: Case studies of MS patients treated with Lamotrigine, compared with matching patients. The format is in vivo, human. The source says:
The average maintenance dose of Lamotrigine in these conditions is 400 mgs per day, but the initial dose or the rate of escalation may cause several side effects.
In the present study, the inventors followed the clinician inventor's clinical practice, which adopted two strategies that had varied from the manufacturer's recommendations. Firstly, a very slow titration process starting with 25 mgs per day increasing the dose gradually (often over several weeks) to avoid adverse events. Secondly, a maintenance dose with mean of 600 mgs per day was applied. Using these two strategies, the inventors observed improvement in the clinical activity of MS and also stabilisation of the disease process. The beneficial effects are illustrated in the following two case studies compared with matching patients who had not been treated with Lamotrigine.
The first treated patient was a person. […] They were referred to the clinician inventor in 1998, and their clinically active disease at that time represented a valid indication for treatment with diseases modifying therapy (β-interferon or Copaxone). However, the therapy could not be started because of financial constraints that were then imposed by their Health Authority. They also complained of sharp pain affecting the legs, which was resistant to several types of analgesia and also resistant to tricyclic antidepressants. Accordingly, treatment was started with Lamotrigine to treat their pain.
The initial dose was 25 mgs per day, which was escalated gradually as outlined above. Their Expanded Disability Status Scale at that time was 2.5. Their painful symptoms improved following Lamotrigine therapy. They also noticed improvement in their other MS-related symptoms, such as muscle spasticity in the legs and daytime fatigue. […] Their EDSS score remained stable at 2.5. Such improvement seemed to be related to Lamotrigine therapy because they had received no immunosuppressive or steroid therapy during the past four years.
A second of Lamotrigine-treated patient was a person, who was diagnosed with relapsing remitting MS five years ago. They also had idiopathic generalised epilepsy since childhood, which was treated with sodium valproate. In the first two years following the diagnosis of MS, they had three clinical relapses. Their seizures also deteriorated and because of this, their anti-epileptic therapy was changed from sodium valproate to Lamotrigine. This drug was introduced at a low dose, and was escalated cautiously as outlined above. Their EDSS score at the beginning of treatment with Lamotrigine was 1.5. […] This improvement seemed to be related to Lamotrigine therapy since they had received no treatment with steroids or immunosuppressive drugs.

In data set [2] the test system is multiple sclerosis patients. The following applies: cited from earlier work; for treatment of symptoms of MS / clinical positive and negative symptoms of MS: Sakurai and Kanazawa 1999; for clinical positive and negative symptoms of MS: low doses, lidocaine by iv infusion.
Setting [3] is: seven MS patients, slow titration from 25 mgs per day, maintenance dose with mean of 600 mgs per day.

Take `CN(C)CCC=C1c2ccccc2CCc2ccccc21` [Amitriptyline]: the clinical relapses entry in data set [1] (Example 1b control, person, active relapsing remitting MS) is “continued to have clinical relapses on a yearly basis”. For the same compound, in data set [1] (Example 1b control, person, active relapsing remitting MS, intractable pain), the painful symptoms result is “improved”.

As for `Nc1nnc(-c2cccc(Cl)c2Cl)c(N)n1` [Lamotrigine, 3,5-diamino-6-(2,3-dichlorophenyl)-1,2,4-triazine], the “other MS-related symptoms, such as muscle spasticity in the legs and daytime fatigue” value in data set [1] (Example 1a, person) was “improvement”. Also, the clinical relapses result in data set [1] (Example 1a, person, relapsing remitting MS, average of one severe relapse per year before, Lamotrigine from 25 mgs per day escalated gradually) is listed as “no clinical relapses since 1998”; in data set [1] (Example 2a, person, relapsing remitting MS, three relapses in first two years before Lamotrigine), “no clinical relapses”. In data set [1] (Example 1a, person, sharp pain affecting the legs), the painful symptoms result is “improved”. The EDSS score in data set [1] (Example 1a, person, remained stable under Lamotrigine (2.5 at start)) is 2.5; in data set [1] (Example 2a, person, remained stable under Lamotrigine (1.5 at start)), 1.5. Moreover, the MS activity result in data set [1] (Examples 3-7, five other patients treated with Lamotrigine) was “clinical improvement”. Besides, the “clinical activity of MS” value in data set [1] (setting [3]) is “improvement”. The disease process result in data set [1] (setting [3]) is reported as “stabilisation”.

`NC(=O)N1c2ccccc2C=Cc2ccccc21` [carbamazepine]: the “treatment of symptoms of MS” value in data set [2] is on record as “without appropriate success”. Moreover, the “disability in multiple sclerosis patients” value in data set [2] (even at relatively low doses, Ramsaransing et al (2000)) is listed as “seriously enhance disability”.

In the case of `CCN(CC)CC(=O)Nc1c(C)cccc1C` [lidocaine], the “clinical positive and negative symptoms of MS” value in data set [2] is “generally improve clinical positive symptoms rather than worsening negative symptoms”.

As for `Cc1cccc(C)c1OCC(C)N` (stereo not shown) [mexiletine], the “clinical positive and negative symptoms of MS” value in data set [2] is “generally improve clinical positive symptoms rather than worsening negative symptoms”.

With `O=C1NC(=O)C(c2ccccc2)(c2ccccc2)N1` [phenytoin], the “treatment of symptoms of MS” value in data set [2] is reported as “without appropriate success”.
